From publication PMC8253220, “Molecular design, synthesis and in vitro biological evaluation of thienopyrimidine–hydroxamic acids as chimeric kinase HDAC inhibitors: a challenging approach to combat cancer” (Journal of Enzyme Inhibition and Medicinal Chemistry, 2021)
Where “and” joins values, the source holds several entries; their conditions need not be identical. Identical values can stand only once.

How the values were obtained:
Test in all cases: NCI one-dose screen
Format in all cases: cell-based, human
786-0 = conditions: Renal 786-0, 10 µM single dose
How it was run: (§1)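 At 10 μM, a single concentration, compounds were evaluated for antiproliferative effect in the NCI 60-line screen, with growth expressed relative to untreated control cells.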

A549/ATCC = conditions: NSCLC A549/ATCC, 10 µM single dose
How it was run: as §1

ACHN = conditions: Renal ACHN, 10 µM single dose
How it was run: as §1

CAKI-1 = conditions: Renal CAKI-1, 10 µM single dose
How it was run: as §1

COLO 205 = conditions: Colon COLO 205, 10 µM single dose
How it was run: as §1

DU-145 = conditions: Prostate DU-145, 10 µM single dose
How it was run: as §1

EKVX = conditions: NSCLC EKVX, 10 µM single dose
How it was run: (§2)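 Compounds were tested at a single dose of 10 μM across the full NCI-60 cell line panel. Growth was expressed as percent growth relative to untreated control cells, reported as percent inhibition.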

HCC-2998 = conditions: Colon HCC-2998, 10 µM single dose
How it was run: as §1

HCT-116 = conditions: Colon HCT-116, 10 µM single dose
How it was run: as §1

HOP-62 = conditions: NSCLC HOP-62, 10 µM single dose
How it was run: as §1

HOP-92 = conditions: NSCLC HOP-92, 10 µM single dose
How it was run: as §1

HS 578T = conditions: Breast HS 578T, 10 µM single dose
How it was run: as §1

IGROV1 = conditions: Ovarian IGROV1, 10 µM single dose
How it was run: as §1

KM12 = conditions: for Growth Percent: Colon KM12, 10 µM single dose
How it was run: (§3)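 Screening used the full NCI panel of 60 cancer cell lines with compounds dosed once at 10 μM; the reported value is percent growth inhibition versus untreated controls.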

LOX IMVI = conditions: Melanoma LOX IMVI, 10 µM single dose
How it was run: as §1

M14 = conditions: Melanoma M14, 10 µM single dose
How it was run: as §1

MALME-3M = conditions: Melanoma MALME-3M, 10 µM single dose
How it was run: as §1

MCF7 = conditions: for Growth Percent: Breast MCF7, 10 µM single dose
How it was run: as §3

MDA-MB-231/ATCC = conditions: Breast MDA-MB-231/ATCC, 10 µM single dose
How it was run: as §1

MOLT-4 = conditions: for Growth Percent: Leukemia MOLT-4, 10 µM single dose
How it was run: as §3

NCI-H226 = conditions: NSCLC NCI-H226, 10 µM single dose
How it was run: as §2

NCI-H522 = conditions: for Growth Percent: NSCLC NCI-H522, 10 µM single dose
How it was run: as §2

OVCAR-3 = conditions: Ovarian OVCAR-3, 10 µM single dose
How it was run: as §1

RPMI-8226 = conditions: Leukemia RPMI-8226, 10 µM single dose
How it was run: as §1

RXF 393 = conditions: Renal RXF 393, 10 µM single dose
How it was run: as §1

SF-268 = conditions: for Growth Percent: CNS SF-268, 10 µM single dose
How it was run: as §3

SF-295 = conditions: CNS SF-295, 10 µM single dose
How it was run: as §1

SF-539 = conditions: for Growth Percent: CNS SF-539, 10 µM single dose
How it was run: as §3

SK-MEL-2 = conditions: Melanoma SK-MEL-2, 10 µM single dose
How it was run: as §1

SK-OV-3 = conditions: Ovarian SK-OV-3, 10 µM single dose
How it was run: as §1

SNB-19 = conditions: CNS SNB-19, 10 µM single dose
How it was run: as §1

SR = conditions: Leukemia SR, 10 µM single dose
How it was run: as §1

SW-620 = conditions: Colon SW-620, 10 µM single dose
How it was run: (§4)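 One concentration (10 μM) applied to each line of the full NCI-60 panel; percent growth compared against untreated cells.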

T-47D = conditions: Breast T-47D, 10 µM single dose
How it was run: as §1

TK-10 = conditions: Renal TK-10, 10 µM single dose
How it was run: as §1

UACC-257 = conditions: Melanoma UACC-257, 10 µM single dose
How it was run: as §4

UACC-62 = conditions: Melanoma UACC-62, 10 µM single dose
How it was run: as §1

Cc1c(C(=O)NCCC(=O)NO)sc2ncnc(Nc3ccc(F)c(Cl)c3)c12 [Compound 19d, 4–(3-chloro-4-fluorophenylamino)-N-(3-(hydroxyamino)-3-oxopropyl)-5-methylthieno[2,3-d]pyrimidine-6-carboxamide]
Growth Percent (786-0): 105.3% and 105.34%
Growth Percent (A549/ATCC): 104.3% and 104.35%
Growth Percent (ACHN): 102.1% and 102.14%
Growth Percent (CAKI-1): 96.6% and 96.62%
Growth Percent (COLO 205): 117.3% and 117.34%
Growth Percent (DU-145): 111.2% and 111.26%
Growth Percent (EKVX): 99.4% and 99.43%
Growth Percent (HCC-2998): 104.7% and 104.72%
Growth Percent (HCT-116): 107.3%
Growth Percent (HOP-62): 104.5% and 104.52%
Growth Percent (HOP-92): 117.7% and 117.77%
Growth Percent (HS 578T): 103.1% and 103.12%
Growth Percent (IGROV1): 106.2% and 106.28%
Growth Percent (KM12): 103.8% and 103.84%
Growth Percent (LOX IMVI): 98.8% and 98.84%
Growth Percent (M14): 104.7% and 104.71%
Growth Percent (MALME-3M): 112.6% and 112.63%
Growth Percent (MCF7): 95.1% and 95.18%
Growth Percent (MDA-MB-231/ATCC): 102.5% and 102.53%
Growth Percent (MOLT-4): 115.3% and 115.32%
Growth Percent (NCI-H226): 104.0% and 104.06%
Growth Percent (NCI-H522): 95.5% and 95.56%
Growth Percent (OVCAR-3): 106.5%
Growth Percent (RPMI-8226): 110.0% and 110.01%
Growth Percent (RXF 393): 102.0% and 102.06%
Growth Percent (SF-268): 96.4% and 96.48%
Growth Percent (SF-295): 96.0% and 96.07%
Growth Percent (SF-539): 98.0% and 98.02%
Growth Percent (SK-MEL-2): 100.6% and 100.61%
Growth Percent (SK-OV-3): 129.2% and 129.24%
Growth Percent (SNB-19): 98.9% and 98.91%
Growth Percent (SR): 110.82%
Growth Percent (SW-620): 101.5%
Growth Percent (T-47D): 106.5% and 106.56%
Growth Percent (TK-10): 107.2%
Growth Percent (UACC-257): 99.7% and 99.74%
Growth Percent (UACC-62): 102.3% and 102.36%

Cc1c(C(=O)NO)sc2ncnc(Nc3ccc(NC(=O)Nc4cccc(C(F)(F)F)c4)cc3)c12 [Compound 7c, 1–(4-(6-(hydroxycarbamoyl)-5-methylthieno[2,3-d]pyrimidin-4-ylamino)phenyl)-3–(3-(trifluoromethyl)phenyl)urea]
Growth Percent (786-0): 108.4% and 108.43%
Growth Percent (A549/ATCC): 100.4% and 100.47%
Growth Percent (ACHN): 94.84%
Growth Percent (CAKI-1): 90.57%
Growth Percent (COLO 205): 103.3% and 103.35%
Growth Percent (DU-145): 104.5% and 104.51%
Growth Percent (EKVX): 95.7% and 95.77%
Growth Percent (HCC-2998): 112.6% and 112.66%
Growth Percent (HCT-116): 97.9% and 97.94%
Growth Percent (HOP-62): 93.7% and 93.71%
Growth Percent (HOP-92): 119.3% and 119.39%
Growth Percent (HS 578T): 90.3% and 90.32%
Growth Percent (IGROV1): 97.6% and 97.68%
Growth Percent (KM12): 66.3% and 66.34%
inhibition at 10 µM (KM12; Homo sapiens, colon KM12, 10 μM): 33.7%
Growth Percent (LOX IMVI): 90.9% and 90.99%
Growth Percent (M14): 102.4% and 102.43%
Growth Percent (MALME-3M): 105.0% and 105.06%
Growth Percent (MCF7): 88.4% and 88.42%
inhibition at 10 µM (MCF7; Homo sapiens, breast MCF7, 10 μM): 11.6%
Growth Percent (MDA-MB-231/ATCC): 95.2% and 95.26%
inhibition at 10 µM (MOLT-4; Homo sapiens, leukaemia MOLT-4, 10 μM): 11.8%
Growth Percent (MOLT-4): 88.2% and 88.24%
Growth Percent (NCI-H226): 99.2% and 99.29%
inhibition at 10 µM (NCI-H522; Homo sapiens, NSCLC NCI-H522, 10 μM): 11.7%
Growth Percent (NCI-H522): 88.3% and 88.38%
Growth Percent (OVCAR-3): 104.2% and 104.27%
Growth Percent (RPMI-8226): 93.27%
Growth Percent (RXF 393): 106.61%
Growth Percent (SF-268): 89.2%
inhibition at 10 µM (SF-268; Homo sapiens, CNS SF-268, 10 μM): 10.8%
Growth Percent (SF-295): 95.1% and 95.16%
Growth Percent (SF-539): 61.4% and 61.49%
inhibition at 10 µM (SF-539; Homo sapiens, CNS SF-539, 10 μM): 38.6%
Growth Percent (SK-MEL-2): 108.5% and 108.54%
Growth Percent (SK-OV-3): 113.0% and 113.07%
Growth Percent (SNB-19): 90.8% and 90.81%
Growth Percent (SR): 94.0% and 94.07%
Growth Percent (SW-620): 108.7% and 108.79%
Growth Percent (T-47D): 96.3% and 96.39%
Growth Percent (TK-10): 116.24%
Growth Percent (UACC-257): 106.3% and 106.33%
Growth Percent (UACC-62): 96.4%

Cc1c(C(=O)NO)sc2ncnc(Nc3cccc4[nH]cnc34)c12 [Compound 15a, 4-(1H-benzo[d]imidazol-4-ylamino)-N-hydroxy-5-methylthieno[2,3-d]pyrimidine-6-carboxamide]
Growth Percent (786-0): 102.1% and 102.13%
Growth Percent (A549/ATCC): 99.5% and 99.51%
Growth Percent (ACHN): 99.1% and 99.11%
Growth Percent (CAKI-1): 92.9% and 92.95%
Growth Percent (COLO 205): 112.8% and 112.81%
Growth Percent (DU-145): 109.5% and 109.53%
Growth Percent (EKVX): 98.4% and 98.44%
Growth Percent (HCC-2998): 100.9% and 100.92%
Growth Percent (HCT-116): 103.9% and 103.95%
Growth Percent (HOP-62): 104.2%
Growth Percent (HOP-92): 118.2% and 118.26%
Growth Percent (HS 578T): 106.4% and 106.47%
Growth Percent (IGROV1): 97.9% and 97.91%
Growth Percent (KM12): 101.12%
Growth Percent (LOX IMVI): 97.5% and 97.58%
Growth Percent (M14): 106.5% and 106.58%
Growth Percent (MALME-3M): 109.7% and 109.71%
Growth Percent (MCF7): 95.2% and 95.25%
Growth Percent (MDA-MB-231/ATCC): 102.4% and 102.49%
Growth Percent (MOLT-4): 104% and 104.07%
Growth Percent (NCI-H226): 99.3% and 99.31%
Growth Percent (NCI-H522): 94.4% and 94.42%
Growth Percent (OVCAR-3): 106.1% and 106.13%
Growth Percent (RPMI-8226): 112.17%
Growth Percent (RXF 393): 101.2% and 101.28%
Growth Percent (SF-268): 93.9%
Growth Percent (SF-295): 103.7%
Growth Percent (SF-539): 102.5% and 102.52%
Growth Percent (SK-MEL-2): 115.8% and 115.88%
Growth Percent (SK-OV-3): 124.5% and 124.53%
Growth Percent (SNB-19): 98.9% and 98.99%
Growth Percent (SR): 106% and 106.56%
Growth Percent (SW-620): 103.6% and 103.66%
Growth Percent (T-47D): 108.3% and 108.35%
Growth Percent (TK-10): 113.8% and 113.84%
Growth Percent (UACC-257): 112.4% and 112.47%
Growth Percent (UACC-62): 94.2% and 94.26%
